Read-outs that look alike come from different tables or passages of the source.

The values below come from patent US11464791B2, “Use of paricalcitol in the treatment of inflammatory anaemia” (priority 2014, dated 2022).

Data set [1] has as its system transferrin saturation index (TSI). Briefly: Study A: evolution of the transferrin saturation index (TSI). Type of data set: in vivo, human. To be noted: for average TSI: subgroup with IV Fe (n=25). Here is the method:
(§1) A controlled prospective study in which the evolution of ESA doses, Fe supplement doses, evolution of Fe, of transferrin, of ferritin, of the transferrin saturation index, of the haemoglobin levels and of the non-conventional markers associated with inflammatory anaemia was determined: Hepcidin and IL-6 and analysis of the hormones associated with a improved erythropoietic response. The variability of the haemoglobin was also assessed. A total of 31 patients were included in this study. The ESAs used by the patients were Epoetin beta (Neorecormon) and CERA.
(§2) This study is a controlled, observational and analytical prospective-type study of cases and controls. The study lasted six months. In the first three months the ESA dose titrations were obtained and, in the remaining three months corresponded to the maintenance phase. The data shown in the present invention form part of the MIR-EPO Study (EudraCT: 2009-015511-40) https://www.clinicaltrialsregister.eu. The design of the MIR-EPO Study assessed patients being treated with an erythropietic agent (Epoetin-beta-Neorecormon or CERA). In said patients, the differences between the groups with and without paricalcitol were analysed, due to which the results shown in the present invention related specifically to the following groups: • Group of patients being treated with paricalcitol (paricalcitol+ESA), i.e. combined treatment, and • Group of patients being treated exclusively with an ESA.
The administration of iron supplements shall always be intravenous with the aim of maintaining a transferrin saturation index (TSI %) greater than 20%.

Data set [2] is described as follows: Study B: cross-sectional comparison of paricalcitol and calcitriol (ESA dose, Hb, PTHi, ferrokinetics). The format is in vivo, human. To be noted: for ESA doses required: Epoetin beta; for PTHi: median (p25-p75). On the procedure: A cross-sectional study designed to assess the differences between calcitriol and paricalcitol associated with the use of ESAs, both used in the treatment of secondary hyperparathyroidism. A total of 92 patients from the Chronic Dialysis Unit of the Hospital Universitario Son Espases (HUSE) in Palma de Mallorca and from the Chronic Haemodialysis Unit of the Policlínica Miramar were included. A total of 31 patients were treated with calcitriol and a total of 61 patients were treated with paricalcitol. The ESA analysed was Epoetin beta (Neorecormon).
In order to determine whether treatment with calcitriol is capable of giving rise to the same results obtained in the treatment with paricalcitol, the groups of patients included in Study B were analysed (Table 2), one of the groups treated with paricalcitol (n=61) and the other group treated with calcitriol (n=31).

For data set [3] the following is noted: paricalcitol >10 μg/dialysis, haemodialysis patients; cited from earlier work.
Data set [4] concerns PTH. Conditions: oral paricalcitol, cited from earlier work.
In data set [5] the test system is Erythropoietin. As to the kind of experiment: Study A: plasma erythropoietin levels (ELISA). Type of data set: in vivo, human. Here is the method:
Analytical determinations: all the blood samples were analysed in the central laboratory of the HUSE, applying the methodology regularly used in clinical practice: • Hb: Haemoglobin was determined on a monthly basis prior to the dialysis session and corresponding weekday. The analysis of the samples was performed using flow cytometry (CELL-DYN Sapphire®—Abbott) at the central laboratory of the HUSE. • Klotho: Human Soluble α-Klotho Assay Kit—IBL. ELISA (Enzyme-LinkedImmunoSorbentAssay) sandwich type using two types of high-specificity anti-Human Klotho antibodies (67G3 and 91F1). Using TeTraMeltilBenzidina (TMB) as a chromogeneous agent. • Hepcidin: DGR HepcidinProhormone ELISA kit. ELISA (Enzyme-LinkedImmunoSorbentAssay) of competitive type with anti-Pro-Hepcidin (polyclonal) antibodies. • IL-6: Quantikine ELISA Human IL-6 immunoassay. ELISA (Enzyme-LinkedImmunoSorbentAssay) sandwich type using specific antibodies for mouse monoclonal and polyclonal IL-6. • Erythropoietin: Quantikine IVD ELISA Human Erythropoietin Immunoassay. […]
The non-conventional inflammatory parameters were determined in months 3 and 6 of the study, due to the fact that it is considered that the first three months of the study were dedicated to ESA dose titration and the last three months to the maintenance phase, as mentioned previously. […]
A general note: ELISA stands for enzyme-linked immunosorbent assay.

Data set [6] can be described thus: Study C: cross-sectional study of paricalcitol dose versus ESA dose and Hb levels. The format is in vivo, human. Conditions: paricalcitol 5-10 μg/week. The text has this:
A cross-sectional study designed to assess the distribution of the dose of paricalcitol (μg/week) associated with a greater erythropoietic response. That is, the aim is to assess the predictive capacity of the doses of paricalcitol (μg/week) over the doses of ESA (UI/week), in addition to assessing the doses of paricalcitol to predict Hb levels (g/dl) and identify the doses of paricalcitol associated with certain Hb levels in a range between 10 and 12 g/dl, which are the levels considered to be optimum.
A total of 58 patients were included in this study. The ESA analysed was Epoetin beta (Neorecormon).
In order to determine the most adequate doses required to obtain the best Hb levels and reduce the need for ESAs, a regression analysis was performed between the Hb levels, the doses of ESAs and the dose of paricalcitol in the group of patients of Study C (FIG. 2). As can be observed in said FIG. 2, the doses comprised between 5 and 10 μg were associated to a reduced need for ESAs. This trend was modified on increasing the doses of paricalcitol, due to which, according to this regression model, the administration of doses of paricalcitol higher than 10 μg/week predicts a greater use of ESAs.

Data set [7] has as its system plasma iron (Fe^2+). As to the kind of experiment: Study A: evolution of iron (Fe^2+) levels. Type of data set: in vivo, human. Conditions: for Fe^2+ levels: subgroup with IV Fe supplements (n=25). Here is the method:
as §1, §2

Data set [8] can be described thus: Study A (MIR-EPO): ESA dose requirements. Type of data set: in vivo, human. Here is the method:
as §1
as §2, with “The data shown in the present invention form part of the MIR-EPO Study (EudraCT: 2009-015511-40) https://www.clinicaltrialsregister.eu.” left out, “ESA. […]” for “ESA.”

For `C=C1CC[C@H](O)C/C1=C/C=C1\CCC[C@]2(C)[C@@H]([C@H](C)CCCC(C)(C)O)CC[C@@H]12` [hidroferol, calcifediol], the “effect over TSI” value in data set [1] (6 months) is “not beneficial”. The TSI levels in data set [1] (month 0) is listed as 29±12%; in data set [1] (month 3), 33±14%; in data set [1] (month 6) it was 25±9%.

In the case of `C=C1/C(=C\C=C2/CCC[C@]3(C)[C@@H]([C@H](C)CCCC(C)(C)O)CC[C@@H]23)C[C@@H](O)C[C@@H]1O` [calcitriol], in data set [2], the Ferritin is reported as 168 (111-298) ng/ml, the Hb levels was 11.10 ± 1.16 g/dL, the TSI % is recorded as 24 ± 10% and the ESA doses required is 9000 UI/week. In addition, the PTHi in data set [2] is 358 (230-623) pg/ml.

As for `C[C@H](/C=C/[C@H](C)C(C)(C)O)[C@H]1CC[C@H]2/C(=C/C=C3C[C@@H](O)C[C@H](O)C3)CCC[C@]12C` [paricalcitol, 19-nor-1, 25-(OH) 2-vitamin D2], the calcium levels in data set [3] was 9.8 mg/dL. The PTH levels is 93 pg/mL in data set [4] (after treatment) and 147 pg/mL in data set [4] (basal level). Besides, the “reduction of PTH levels with respect to the basal level” value in data set [4] is about 40%. Further, the plasma erythropoietin levels is 8.6 (4.6-16.7) mUI/ml in data set [5] (month 3) and 20.2 (7.2-33.6) mUI/ml in data set [5] (month 6). Further, the figures for the “average TSI” value in data set [1] (month 0), in data set [1] (month 3) and in data set [1] (month 6) were 25±6%, 24±5% and 30±19%, respectively. Besides, the “plasma Hb levels predicted by regression” value in data set [6] is given as 10-12 g/dl. Further, the Ferritin in data set [2] is recorded as 494 (244-701) ng/ml. The Hb levels in data set [2] turned out to be 11.89 ± 0.13 g/dL. Further, in data set [2], the TSI % is 30 ± 10%. The ESA doses required entry in data set [2] is listed as “approximately 4000 UI/week”. The PTHi in data set [2] was 276 (170-449) pg/ml. Further, the “Iron (Fe^2+) levels” value in data set [7] (month 0) was 68 ± 23 µg/dL; in data set [7] (month 3), 68 ± 28 µg/dL; in data set [7] (month 6), 66 ± 37 µg/dL. Besides, the “Fe^2+ levels” value in data set [7] (month 0) came out at 61 ± 16 µg/dL; in data set [7] (month 3), 57 ± 14 µg/dL; in data set [7] (month 6), 68 ± 37 µg/dL. In addition, the “evolution of ESA requirements” value in data set [8] (months 0-6) is “significant decrease”. Besides, the “lower dose of ESA versus group treated exclusively with ESA” value in data set [8] (subgroup with IV Fe, month 6) amounted to 24%.
